Assay results: US9233144B2, “Tyrosine kinase receptor TYRO3 as a therapeutic target in the treatment of cancer” (INSTITUT CURIE, priority 2008, dated 2016)

What was measured:
TYRO3 [1] = experiment: TYRO3 mRNA levels in MGH-U3 xenografts by Q-RT-PCR; type: in vivo, athymic nude mice; settings: 3 days after the last siRNA injection, Student's t-test p<0,001
Source text: FIG. 13 is a graph showing TYRO3 mRNA levels for MGH-U3 xenografts, 3 days after the last siRNA injection, divided by TBP (TATA binding protein) mRNA levels+/−SD in treated and control tumors, as assessed by Q-RT-PCR.

TYRO3 [2] = experiment: Efficiency of TYRO3 silencing after siRNA transfection (mRNA and western-blot); type: cell-based, human; settings: MGH-U3, KK47, J82 and RT112 cells; 50 nM siRNA; 72 hours after transfection
Protocol: Cells were transfected with 50 nM siRNA (siRNA anti-TYRO3 (SEQ ID No. 1) or control siRNA (scramble, SEQ ID No. 2)) and the efficiency of TYRO3 silencing was assessed 72 hours after transfection by western-blot.

bladder cancer cells [3] = experiment: Cell cycle analysis by flow-cytometry 72 h post siRNA transfection; type: cell-based, human
Protocol: Results were analyzed using Fisher test, *** p<0.001, * 0.01<p<0.05

bladder cancer cells [4] = experiment: TUNEL assay on transfected bladder cancer cells; type: cell-based, human; settings: 50 nM siRNA; 72 hours after transfection
Protocol: 3×10^4 cells per well were seeded on a glass slide in a 24-well plate and transfected with 50 nM siRNA. DNA fragmentation was evaluated 72 hours after transfection, using a TUNEL (deoxynucleotidyl transferase (Tdt)-mediated nick-end labeling) assay detection Kit (Roche Diagnostic, Meylan, France) according to the manufacturer's instructions. The inventors analyzed 600 cells under a light microscope, determining the proportion of labeled cells.

MGH-U3 xenografts = experiment: Growth of MGH-U3 xenografts, siRNA treatment; type: in vivo, athymic nude mice
Protocol: Tumor-bearing mice were treated three times a week by intraperitoneal injection of 4 μg siRNA (control or TYRO3) (6 mice and 12 tumors per group) (The first injection corresponds to day 0). Tumor volume variations are represented on the graph of FIG. 12A. (Wilcoxon rank sum test: *, 0.05<p<0.01, **, 0.01<p<0.001, ***, p<0.001) Inset are pictures of representative tumors observed at the end of the treatment. The upper line tumors are those of TYRO3 siRNA treated mice. The middle line tumors are those of control siRNA treated mice. The lower line tumors are those of PBS treated mice. Tumors were weighted at the end of the experiment (FIG. 12B).
The role of this gene in bladder cancer cell growth in vivo was studied. J82 and MGH-U3 cells were implanted subcutaneously in athymic nude mice. Once tumors were established, mice were randomly selected for treatment with control or TYRO3-specific siRNAs. For J82 xenografts, two weeks after the beginning of treatment only three tumors out of 12 were still observed (FIGS. 11A and 11B). For MGH-U3 xenografts, after 21 days of treatment, tumor volume was 70% lower in mice treated with TYRO3 siRNA than in mice treated with control siRNA (Wilcoxon rank-sum test, p<0.001) (FIGS. 12A and 12B).

[5] = system: MGH-U3, KK47, RT112 and J82 colonies; experiment: Anchorage-independent colony formation in soft agar; type: cell-based, human; settings: 50 nM siRNA, two weeks
Protocol: 2.10^4 50 nM siRNA-transfected cells in DMEM supplemented with 10% FCS and 0.3% agar, were added to triplicate wells containing medium and 0.8% agar on 12-well plates. The plates were incubated for two weeks and colonies with diameters greater than 50 μm were scored as positive, using a phase-contrast microscope equipped with a measuring grid. Results are the means+/−SD of two independent experiments carried out in triplicate.

MCF7 cells = experiment: Cell viability after siRNA transfection, control cell line with very low TYRO3 expression; type: cell-based, human
Protocol: (§1) After transfection as described in the legend of FIG. 4, cells were treated with trypsin 72 hours after transfection, stained with trypan blue and viable cells were counted in triplicate, using a Malassez hematocytometer. Results are the means+/−SD of two independent experiments carried out in triplicate.
(§2) In order to investigate the role of TYRO3 in cell growth and tumorigenic properties, TYRO3 expression was blocked using RNA interference technology or TYRO3 activity was inhibited using a blocking antibody directed against the extracellular domain of TYRO3 or a soluble receptor consisting of the recombinant extracellular domain of TYRO3 produced in bacteria. Two cell lines expressing TYRO3 (MGH-U3, KK47), two cell lines expressing both TYRO3 and GAS6 (J82, RT112) and one control breast cancer derived cell line presenting a very low TYRO3 expression level (MCF-7) were used. It was shown by western blot using an anti-phosphotyrosine antibody after TYRO3 immunoprecipitation that in each type of cell line (expressing or not GAS6), TYRO was activated (data not shown).

[6] = system: MGH-U3, KK47, J82 and RT112 cells; experiment: Cell viability after siRNA transfection (trypan blue count); type: cell-based, human; settings: 50 nM siRNA, 72 hours after transfection
Protocol: as §1, §2

[7] = siRNA treated xenografts, data not shown

Substance: TYRO3 siRNA: siRNA anti-TYRO3 comprising the sequence of SEQ ID No. 1 (GGUGUGCCAUUUUUCACAGTT; chemistry not given here)
- TYRO3 mRNA levels in tumors (TYRO3 [1]): significant decrease
- inhibition of TYRO3 mRNA and protein levels (TYRO3 [2]): 80-90%
- change in cell-cycle progression (bladder cancer cells [3]): significant but low change
- apoptotic rate (TUNEL) (bladder cancer cells [4]): increased apoptotic rate
- tumor volume lower than in mice treated with control siRNA (MGH-U3 xenografts; MGH-U3 xenografts, after 21 days of treatment, 4 μg siRNA intraperitoneal three times a week, p<0.001): 70%
- apoptosis in treated tumors (TUNNEL analysis) (MGH-U3 xenografts; [7]): increase apoptosis
- histological difference between treated and control tumors (MGH-U3 xenografts; [7]): No histological difference
- viable colonies in soft agar assays [5]: fewer viable
- effect on viable cells (MCF7 cells): no effect
- viable cells versus control siRNA [6]: fewer viable
